Data taken from patent US6337402B2, “Asymmetrical bisbenzotriazoles substituted by a perfluoroalkyl moiety and compositions stabilized therewith” (Ciba Specialty Chemicals Corporation, priority 1999, dated 2002).

What was measured:
[1] = Bisbenzotriazole solubility in adhesive GELVA 263; type: physicochemical; details: in GELVA 263 polyacrylate adhesive; approximate maximum concentration with no sign of crystallization after solvent evaporation; weight added to GELVA 263 as is
Method: To measure the solubility of the instant bisbenzotriazole UV absorber in an adhesive composition, the compound is added to a typical adhesive GELVA® 263 (Solutia) which is a 44.5% solution of a polyacrylate in a mixture of ethyl acetate and hexane. The polyacrylate is a copolymer of methyl methacrylate, 2-ethylhexyl methacrylate and glycidyl methacrylate.
The test compound is dissolved in 5 mL of ethyl acetate, toluene or a mixture of ethyl acetate and toluene. To the solution is added 5 g of GELVA® 263. 2-3 mL of the resulting solution is place into individual watch glasses. Solubility is then evaluated based upon observed crystallization once the solvent has evaporated. Observations start after several hours and then continue over a period of several weeks.
Solubilities are reported in weight of total bisbenzotriazole added to GELVA® 263 as is.

melting point [°C]	SMILES	Solubility without Crystallization (%) [1] [%]
	CC(C)(C)CC(C)(C)c1cc(Cc2cc(C(C)(C)CC(C)(C)C)cc(-n3nc4ccc(C(F)(F)F)cc4n3)c2O)c(O)c(-n2nc3ccccc3n2)c1 [D, methylene-2-[4-tert-octyl-6-(2H-benzotriazol-2-yl)phenol]-2′-[4-tert-octyl-6-(5-trifluoromethyl-2H-benzotriazol-2-yl)phenol]]	2.0
	CC(C)(C)c1cc(-n2nc3ccc(Cl)cc3n2)c(O)c(C(C)(C)C)c1 [C, 5-chloro-2-(2-hydroxy-3,5-di-tert-butylphenyl)-2H-benzotriazole]	2.0
	CC(C)(C)CC(C)(C)c1cc(Cc2cc(C(C)(C)CC(C)(C)C)cc(-n3nc4ccc(C(F)(F)F)cc4n3)c2O)c(O)c(-n2nc3ccc(C(F)(F)F)cc3n2)c1 [E, 2,2′-methylene-bis[6-(5-trifluoromethyl-2H-benzotriazol-2-yl)-4-tert-octylphenol]]	4.0
	CC(C)(c1ccccc1)c1cc(-n2nc3ccccc3n2)c(O)c(C(C)(C)c2ccccc2)c1 [B, 2-(2-hydroxy-3,5-di-α-cumylphenyl)-2H-benzotriazole]	2.0
	CC(C)(C)CC(C)(C)c1cc(Cc2cc(C(C)(C)C)cc(-n3nc4ccc(Sc5ccccc5)cc4n3)c2O)c(O)c(-n2nc3ccc(C(F)(F)F)cc3n2)c1 [H, Methylene-2-[4-tert-butyl-6-(5-phenylthio-2H-benzotriazol-2-yl)phenol]-2′-[4-tert-octyl-6-(5-trifluoromethyl-2H-benzotriazol-2-yl)phenol]]	22.0
	CC(C)(C)CC(C)(C)c1cc(Cc2cc(C(C)(C)C)cc(-n3nc4ccc(S(=O)(=O)c5ccccc5)cc4n3)c2O)c(O)c(-n2nc3ccc(C(F)(F)F)cc3n2)c1 [G, Methylene-2-[4-tert-butyl-6-(5-phenylsulfonyl-2H-benzotriazol-2-yl)phenol]-2′-[4-tert-octyl-6-(5-trifluoromethyl-2H-benzotriazol-2-yl)phenol]]	22.0
	CC(C)(C)CC(C)(C)c1cc(Cc2cc(C(C)(C)C)cc(-n3nc4ccc(Cl)cc4n3)c2O)c(O)c(-n2nc3ccc(C(F)(F)F)cc3n2)c1 [F, Methylene-2-[4-tert-butyl-6-(5-chloro-2H-benzotriazol-2-yl)phenol]-2 ′-[4-tert-octyl-6-(5-trifluoromethyl-2H-benzotriazol-2-yl)phenol]]	11.0
224 to 234	CC(C)(C)c1cc(Cc2cc(C(C)(C)C)cc(-n3nc4ccc(S(=O)(=O)c5ccccc5)cc4n3)c2O)c(O)c(-n2nc3ccc(S(=O)(=O)c4ccccc4)cc3n2)c1 [A, 2,2′-Methylene-bis[6-(5-phenylsulfonyl-2H-benzotriazol-2-yl)-4-tert-butylphenol]]	0.0
